In patent US20210386733A1, “LYSINE-SPECIFIC HISTONE DEMETHYLASE INHIBITORS FOR THE TREATMENT OF MYELOPROLIFERATIVE NEOPLASMS” (Imago Biosciences, Inc., priority 2019, published 2021):
Where a name gives a salt, the structure may show the parent alone.

Tests used:
[1] = system: patients with myelofibrosis; assay: Phase 2B clinical trial of Compound 1 in myelofibrosis (Example 2); assay type: in vivo, human
Method: A multi-center, open label, dose-range finding study to assess the safety, optimally effective dosing rules, steady-state pharmacokinetics and pharmacodynamics of Compound 1 orally once daily in patients with myelofibrosis was conducted in a Phase 1/2a study. • Primary objectives were to evaluate, in MF patients the effect of Compound 1 on: Safety and tolerability • Pharmacokinetics (Phase 1/2a only) • Reduction in spleen volume
This study initiated as a Phase 1/2a study assessing the safety of the starting dose, an 85 day duration of treatment, and the pharmacokinetic and pharmacodynamic effects of Compound 1, with transition to a Phase 2b study incorporating changes supported by the earlier pharmacokinetic and pharmacodynamic studies and safety assessments. This study consisted of two treatment periods: the Initial Treatment Period (ITP), followed by the Additional Treatment Period (ATP). Patients commenced enrolment in the Phase 2b portion of the study, in which the ITP has been extended such that patients were treated daily for 169 days. The ATP, also extended, offered treatment to qualifying patients for an additional 169 days.
Initial Treatment Period. During the ITP, patients initially returned for study assessments twice weekly for the first week (ITP Days 0, 3 and 7); post-dosing of 3 patients at the new Ds, the DSMC convened to assess the necessity of the Day 3 visit. Patients returned weekly for the next 7 weeks (ITP Days 14, 21, 28, 35, 42, 49 and 56), at least bi-weekly for 8 weeks (ITP Days 70, 84, 98 and 112) and then monthly for 8 weeks (ITP Days 140 and 168). It was anticipated that by Week 8 (Day 56) patients will have achieved a stable dose, with weekly titrations no longer necessary. For the exceptional patient whose dose had not stabilized, weekly visits continued at the PI's discretion (note: bi-weekly visits may also continue post Day 112). On Days 84 and 168, patients underwent abdominal magnetic resonance imaging (MRI), or computerized tomography (CT) if the patient was not a candidate for MRI. On Day 168, bone marrow sampling was also required. Prior to or at the Day 168 visit, but ideally at the Day 140 visit for logistical purposes, a ‘qualification’ assessment was made to determine whether the patient is deriving clinical benefit (defined as not meeting progressive disease criteria and safely tolerating Compound 1; this definition applies throughout document and will not be repeated with each reference to clinical benefit). Such patients qualified for entry into the ATP, a transition which was anticipated to occur without interruption in dosing. Patients not deriving clinical benefit, or who achieve complete response (CR), partial response (PR) or clinical improvement (CI) and subsequently relapse the equivalent of treatment failures, discontinued Compound 1 and undergo End of Treatment (EoT), pre-End of Study (pre-EoS) and End of Study (EoS) visits.
Initial Treatment Period (ITP). Treatment began on Day 0 at the Ds of 0.5 mg/kg QD for all patients entering the Phase 2b portion of the study. Dose-adjustments could be made at each clinic visit (with the exception of Day 3), with dose-titration, either upward or downward, contingent on the comparison of hematology values from the prior visit, as dictated by the rules below. The Dpi was anticipated to be ≤1.2 mg/kg QD; however, this was not the upper limit for titration purposes as the dose needed to achieve a therapeutic effect will vary among patients and may change over time. The platelet titration target expected to be associated with a clinically significant therapeutic effect was a platelet count of ≥50,000 to ≤75,000/μL (50-75×10^9/L). Titration and re-challenge rules based on evaluation of platelet, absolute neutrophil (ANC) and hemoglobin (Hgb) counts are noted below. […]

[2] = Non-clinical studies of acute toxicity; assay type: in vivo; details: even at extremely high doses (human equivalent dose (HED) ˜20-40 mg/kg)
[3] = Phase 2b patients at Week 12, n=14

## CN1CCN(C(=O)[C@H](CCCN[C@@H]2C[C@H]2c2ccc(F)cc2)NC(=O)c2ccc(-n3ccnn3)cc2)CC1 [Compound 1, N-[(2S)-5-{[(1R, 2S)-2-(4-fluorophenyl)cyclopropyl]amino}-1-(4-methylpiperazin-1-yl)-1-oxopentan-2-yl]-4-(1H-1,2,3-triazol-1-yl)benzamide, bis-tosylate salt]
[1]; [3]
  patients with a decrease in spleen volume: 86%
  patients with a spleen volume reduction of ≥20%: 29%
  patients with a spleen volume reduction of ≥35%: 14%
[1]; Phase 2b patients, n=14
  median change in spleen volume to Wk 12: −15%
[1]; all patients at Week 12, n=32
  patients with a decrease in symptom score: 78%
  patients with a reduction in symptom score of ≥50%: 25%
[2]
  acute toxicity in non-clinical studies: no evidence
